In paper PMC11364775, “Ion occupancy of the selectivity filter controls opening of a cytoplasmic gate in the K2P channel TALK-2” (Nature Communications, 2024):

Experiments:
[1] = target: T1, WT TALK-2 channels (human K2P17.1) (Homo sapiens, UniProt Q96T54); assay: Inside-out patch-clamp, ligand activation of channel currents at +40 mV (oocytes); conditions: 5 µM; TALK-2 WT
T1 sequence (Q96T54 1-332): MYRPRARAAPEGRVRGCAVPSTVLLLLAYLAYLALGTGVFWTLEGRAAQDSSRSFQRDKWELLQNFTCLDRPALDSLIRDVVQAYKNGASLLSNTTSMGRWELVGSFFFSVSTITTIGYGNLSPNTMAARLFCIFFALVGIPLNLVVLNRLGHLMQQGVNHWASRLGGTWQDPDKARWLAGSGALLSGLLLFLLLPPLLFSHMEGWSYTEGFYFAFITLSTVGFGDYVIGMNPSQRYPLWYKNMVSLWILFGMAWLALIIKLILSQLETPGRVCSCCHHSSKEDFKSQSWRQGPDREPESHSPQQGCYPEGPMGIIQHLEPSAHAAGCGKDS
Experimental: Oocytes were surgically removed from anesthetized adult females, treated with type II collagenase (Sigma-Aldrich/Merck, Germany) and manually defolliculated. 50 nl of a solution containing the K^+ channel specific cRNA was injected into Dumont stage V - VI oocytes and subsequently incubated at 17 °C in a solution containing (mM): 54 NaCl, 30 KCl, 2.4 NaHCO3, 0.82 MgSO4 x 7 H2O, 0.41 CaCl2, 0.33 Ca(NO3)2 x 4 H2O and 7.5 TRIS (pH 7.4 adjusted with NaOH/HCl) for 1–7 days before use. Electrophysiological recordings: Excised patch measurements in inside-out configuration under voltage-clamp conditions were performed at room temperature (22 – 24 °C). […] Intracellular bath solutions and compounds were applied to the cytoplasmic side of excised patches for the various K^+ channels via a gravity flow multi-barrel pipette system. Intracellular solution had the following composition (in mM): 120 KCl, 10 HEPES, 2 EGTA and 1 Pyrophosphate (pH adjusted with KOH/HCl). In other intracellular bath solutions, K^+ was replaced by Rb^+ (pH 7.4 adjusted with RbOH/HCl). Currents were recorded with an EPC10 amplifier (HEKA electronics, Germany) and sampled at 10 kHz or higher and filtered with 3 kHz (-3 dB) or higher as appropriate for sampling rate.
Recorded currents were analyzed from stable membrane patches at a voltage defined in the respective figure legend or with a voltage protocol as indicated in the respective figure. The fold activation (fold change in (tail) current amplitude) of a ligand (drug or bioactive lipid) was calculated from Eq. 1:1 Fold activationFA=Iactivated/Ibasal where Iactivated represents the stable current level in the presence of a given concentration of a respective ligand and Ibasal the measured current before ligand application. Percentage inhibition or residual currents upon blocker application for a ligand (drug or bioactive lipid) was calculated from stable currents of excised membrane patches using the following Eqs. 2 and 3:2 %inhibition=1−Iinhibited/Ibasal*100 3 Residual current=100−%inhibition where Iinhibited refers to the stable current level recorded in the presence of a given concentration of a drug or bioactive lipid and Ibasal to the measured current before ligand application. The macroscopic half-maximal concentration-inhibition relationship of a ligand was obtained using a Hill-fit for dose-response curves as depicted in Eq. 4:4 %inhibition/activation=Ibase+Imax−Ibase/1+x1/2/x^rate where base and max are the currents in the absence and presence of a respective ligand, x is the concentration of the ligand, x1/2 is the ligand concentration at which the activatory or inhibitory effect is half-maximal, rate is the Hill coefficient.

WT TALK-2 channels = target: T2, WT TALK-2 channels (Homo sapiens, UniProt Q96T54); assay: Conductance-voltage (G-V) curves from tail currents, V1/2 (intracellular Rb+); assay type: cell-based; set-up: expressed in transfected cells; host or cells: Xenopus laevis oocytes (cRNA injection), excised inside-out patches; conditions: for Normalized current: TALK-2 WT + 5 µM Oleoyl-CoA
T2 sequence (Q96T54 1-332): T1 sequence (Q96T54 1-332)
From the text: The voltage-dependent activation mechanism of the SF gate in K2P channels allows to estimate the electrical work (ΔG = zFΔV1/2) required for pore opening by fitting the G–V curve to a Boltzmann equation. […] The open state represents the situation of both gates being simultaneously open but voltage can only exert force on the SF gate that functions as voltage sensor. […] We further tested whether mutations that open the lower gate (L262A and L264A) would affect the extracellular pH sensitivity. […] We further explored this concept of allosteric coupling using the mutations identified in the functional alanine screen of TM2 and TM4. […]
Conductance-voltage (G–V) relationships were determined from tail currents recorded at a holding potential (VH) of −80 mV after 300 ms depolarizing steps as indicated in the respective figure legend. Data were analyzed with a single Boltzmann fit following Eq. 6:6 GV=Imax/1+e^V−V1/2/slope+Ibase where V1/2 represents the voltage of half-maximal activation, s is the slope factor and Imax and Ibase represent the upper and lower asymptotes. Under appropriate experimental conditions, you can use slope to calculate the valence (charge) of the ion moving across the channel. Slope equals R * T/ z * F where R is the universal gas constant, T is temperature in K, F is the Faraday constant, and z is the valence.

## CCCCCCCC/C=C\CCCCCCCC(=O)SCCNC(=O)CCNC(=O)[C@H](O)C(C)(C)COP(=O)(O)OP(=O)(O)OC[C@H]1O[C@@H](n2cnc3c(N)ncnc32)[C@H](O)[C@@H]1OP(=O)(O)O [oleoyl-CoA]
[1]
  Fold activation 5 µM oleoyl-CoA: 19.13 fold
WT TALK-2 channels; 5 µM Oleoyl-CoA, shift of G-V curve
  V1/2 shift (mV): 26.7 mV
WT TALK-2 channels; Voltage 0.000
  Normalized current: 0.186
WT TALK-2 channels; Voltage 0.005
  Normalized current: 0.210
WT TALK-2 channels; Voltage 0.010
  Normalized current: 0.238
WT TALK-2 channels; Voltage 0.015
  Normalized current: 0.274
WT TALK-2 channels; Voltage 0.020
  Normalized current: 0.318
WT TALK-2 channels; Voltage 0.025
  Normalized current: 0.366
WT TALK-2 channels; Voltage 0.030
  Normalized current: 0.416
WT TALK-2 channels; Voltage 0.035
  Normalized current: 0.467
WT TALK-2 channels; Voltage 0.040
  Normalized current: 0.514
WT TALK-2 channels; Voltage 0.045
  Normalized current: 0.557
WT TALK-2 channels; Voltage 0.050
  Normalized current: 0.597
WT TALK-2 channels; Voltage 0.055
  Normalized current: 0.633
WT TALK-2 channels; Voltage 0.060
  Normalized current: 0.668
WT TALK-2 channels; Voltage 0.065
  Normalized current: 0.699
WT TALK-2 channels; Voltage 0.070
  Normalized current: 0.727
WT TALK-2 channels; Voltage 0.075
  Normalized current: 0.755
WT TALK-2 channels; Voltage 0.080
  Normalized current: 0.778
WT TALK-2 channels; Voltage 0.085
  Normalized current: 0.804
WT TALK-2 channels; Voltage 0.090
  Normalized current: 0.822
WT TALK-2 channels; Voltage 0.095
  Normalized current: 0.844
WT TALK-2 channels; Voltage 0.100
  Normalized current: 0.861
WT TALK-2 channels; Voltage 0.105
  Normalized current: 0.882
WT TALK-2 channels; Voltage 0.110
  Normalized current: 0.895
WT TALK-2 channels; Voltage 0.115
  Normalized current: 0.911
WT TALK-2 channels; Voltage 0.120
  Normalized current: 0.926
WT TALK-2 channels; Voltage 0.125
  Normalized current: 0.934
WT TALK-2 channels; Voltage 0.130
  Normalized current: 0.943
WT TALK-2 channels; Voltage 0.135
  Normalized current: 0.956
WT TALK-2 channels; Voltage 0.140
  Normalized current: 0.963
WT TALK-2 channels; Voltage 0.145
  Normalized current: 0.968
WT TALK-2 channels; Voltage 0.150
  Normalized current: 0.977
WT TALK-2 channels; Voltage 0.155
  Normalized current: 0.979
WT TALK-2 channels; Voltage 0.160
  Normalized current: 0.985
WT TALK-2 channels; Voltage -0.005
  Normalized current: 0.170
WT TALK-2 channels; Voltage -0.010
  Normalized current: 0.157
WT TALK-2 channels; Voltage -0.015
  Normalized current: 0.148
WT TALK-2 channels; Voltage -0.020
  Normalized current: 0.137
WT TALK-2 channels; Voltage -0.025
  Normalized current: 0.129
WT TALK-2 channels; Voltage -0.030
  Normalized current: 0.123
WT TALK-2 channels; Voltage -0.035
  Normalized current: 0.120
WT TALK-2 channels; Voltage -0.040
  Normalized current: 0.115
WT TALK-2 channels; Voltage -0.045
  Normalized current: 0.109
WT TALK-2 channels; Voltage -0.050
  Normalized current: 0.104
WT TALK-2 channels; Voltage -0.055
  Normalized current: 0.102
WT TALK-2 channels; Voltage -0.060
  Normalized current: 0.097
WT TALK-2 channels; Voltage -0.065
  Normalized current: 0.093
WT TALK-2 channels; Voltage -0.070
  Normalized current: 0.092
WT TALK-2 channels; Voltage -0.075
  Normalized current: 0.089
WT TALK-2 channels; Voltage -0.080
  Normalized current: 0.088
WT TALK-2 channels; Voltage -0.085
  Normalized current: 0.088
WT TALK-2 channels; Voltage -0.090
  Normalized current: 0.087
WT TALK-2 channels; Voltage -0.095
  Normalized current: 0.087
WT TALK-2 channels; Voltage -0.100
  Normalized current: 0.087
WT TALK-2 channels; Voltage -0.105
  Normalized current: 0.086
WT TALK-2 channels; Voltage -0.110
  Normalized current: 0.086
WT TALK-2 channels; Voltage -0.115
  Normalized current: 0.086
WT TALK-2 channels; Voltage -0.120
  Normalized current: 0.086
WT TALK-2 channels; TALK-2 WT, 5 µM ligand
  V1/2: 44.9 mV
